# Tested on: not listed separately
# Assay: Cataleptic action (pole test)
# Conditions: in vivo, ip; male rat, intraperitoneal, one hour after administration; dose inducing catalepsy in 50% of the rats
# Description: The cataleptic action which is a typical central nervous system side-effect of antipsychotic agents in the clinical study was evaluated as follows. The test substance was intraperitoneally administered to a male rat. One hour later, the rat was made to hold on a pole three times which is horizontally set at a height of 9 cm. When the rat retained the unnatural stretched pose for 30 seconds even one time out of three times, the rat was evaluated as cataleptic positive. The dose for inducing 50% the rats to the catalepsy: ED50 value was calculated.
row,SMILES,ED50 at 1 h
1,O=C(NC[C@H]1CCC[C@@H]1CN1CCN(c2nsc3ccccc23)CC1)c1cccc(Oc2ccccc2)c1 [Example 87],> 135 mg/kg
2,O=C(/C=C/c1cccc(Cl)c1)NC[C@@H]1CCCC[C@H]1CN1CCC(c2noc3cc(F)ccc23)CC1 [Example 200],> 7.2 mg/kg

# Tested on: methamphetamine-induced movement of the rat
# Assay: Anti-methamphetamine test (movement measured with Supermex)
# Assay type: in vivo
# Conditions: male rat, intraperitoneal, 30 min before methamphetamine 1 mg/kg i.p.; movement measured for 90 minutes; dose for 50% inhibition; read-out: Antidopaminergic action ED50
# Description: The anti-methamphetamine test which is a typical in vivo test for evaluating antipsychotic action in the clinical study was carried out as follows. The test substance was intraperitoneally administered to a male rat, and 30 minutes later methamphetamine (1 mg/kg) was intraperitoneally administered to the male rat. Ten minutes after completing the administrations, the movement of the rat was measured with Supermex for 90 minutes, and the dose for 50% inhibition: ED50 value was calculated.
row,SMILES,ED50
1,O=C(NC[C@H]1CCC[C@@H]1CN1CCN(c2nsc3ccccc23)CC1)c1cccc(Oc2ccccc2)c1 [Example 87],4.5 mg/kg
2,O=C(/C=C/c1cccc(Cl)c1)NC[C@@H]1CCCC[C@H]1CN1CCC(c2noc3cc(F)ccc23)CC1 [Example 200],0.24 mg/kg

# Molecular target: T1, human D2 receptor (Homo sapiens, UniProt P14416)
# T1 construct: expressed in transfected cells
# Assay: Binding assay for D2 receptor using [3H] spiperone
# Conditions: test compound 100 nM, cell membrane expressing human D2 receptor, read-out: Binding inhibitory rate (%) for D2 receptor (100 nM)
# Description: In general, there is clinically some correlation between antipsychotic action and antagonistic action for dopamine D2 receptor. The experimental method used herein is a binding assay for D2 receptor which is one of the tests evaluating D2 receptor action in vitro, According to the known method (e.g. Japan, J. Pharmacol., 53, 321-329 (1990)), the above-captioned experiment was carried out using [3H] spiperone, i.e., the binding amount of [3H] spiperone to the preparation cell membrane expressing human D2 receptor was measured, and then the binding inhibitory rate by the test compound (100 nM) was measured/calculated.
# T1 sequence (P14416 whole entry): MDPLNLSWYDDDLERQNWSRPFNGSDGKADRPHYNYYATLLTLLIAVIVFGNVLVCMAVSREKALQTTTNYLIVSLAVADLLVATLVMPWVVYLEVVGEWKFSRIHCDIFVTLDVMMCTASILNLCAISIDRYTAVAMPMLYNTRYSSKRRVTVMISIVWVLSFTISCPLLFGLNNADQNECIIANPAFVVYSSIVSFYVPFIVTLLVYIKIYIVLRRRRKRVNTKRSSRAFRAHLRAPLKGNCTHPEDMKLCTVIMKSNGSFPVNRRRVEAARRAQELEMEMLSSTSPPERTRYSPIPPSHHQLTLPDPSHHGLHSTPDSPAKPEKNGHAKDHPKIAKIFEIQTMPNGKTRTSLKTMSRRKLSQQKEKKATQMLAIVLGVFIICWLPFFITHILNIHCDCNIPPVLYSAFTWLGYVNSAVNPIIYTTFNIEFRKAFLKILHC
row,SMILES,inhibition at 0.1 µM
1,Cc1cccc(/C=C/C(=O)NC[C@@H]2CCCC[C@@H]2CN2CCN(c3nsc4ccccc34)CC2)c1 [Example 13],92%
2,COc1cccc(/C=C/C(=O)NC[C@@H]2CCCC[C@@H]2CN2CCN(c3nsc4ccccc34)CC2)c1OC [Example 14],92%
3,COc1ccccc1/C=C/C(=O)NC[C@@H]1CCCC[C@@H]1CN1CCN(c2nsc3ccccc23)CC1 [Example 15],93%
4,O=C(/C=C/c1ccccc1[N+](=O)[O-])NC[C@@H]1CCCC[C@@H]1CN1CCN(c2nsc3ccccc23)CC1 [Example 16],94%
5,O=C(/C=C/c1ccc2c(c1)OCO2)NC[C@@H]1CCCC[C@@H]1CN1CCN(c2nsc3ccccc23)CC1 [Example 21],91%
6,COc1ccccc1/C=C/C(=O)NC[C@H]1CCCC[C@@H]1CN1CCN(c2nsc3ccccc23)CC1 [Example 32],91%
7,O=C(/C=C/c1ccccc1[N+](=O)[O-])NC[C@H]1CCCC[C@@H]1CN1CCN(c2nsc3ccccc23)CC1 [Example 33],90%
8,O=C(NC[C@H]1CCCC[C@@H]1CN1CCN(c2nsc3ccccc23)CC1)c1ccc2c(c1)OCO2 [Example 36],92%
9,O=C(Cc1ccc(Cl)cc1)NC[C@H]1CCCC[C@@H]1CN1CCN(c2nsc3ccccc23)CC1 [Example 37],90%
10,O=C(/C=C/c1ccccc1F)NC[C@H]1CCCC[C@@H]1CN1CCN(c2nsc3ccccc23)CC1 [Example 44],91%
11,Cc1ccccc1/C=C/C(=O)NC[C@H]1CCCC[C@H]1CN1CCN(c2nsc3ccccc23)CC1 [Example 60],91%
12,COc1cccc(/C=C/C(=O)NC[C@H]2CCCC[C@H]2CN2CCN(c3nsc4ccccc34)CC2)c1OC [Example 62],91%
13,O=C(/C=C/c1ccccc1[N+](=O)[O-])NC[C@H]1CCCC[C@H]1CN1CCN(c2nsc3ccccc23)CC1 [Example 64],92%
14,O=C(NC[C@H]1CCCC[C@H]1CN1CCN(c2nsc3ccccc23)CC1)c1ccc2c(c1)OCO2 [Example 67],90%
15,O=C(/C=C/c1ccc2c(c1)OCO2)NC[C@H]1CCCC[C@H]1CN1CCN(c2nsc3ccccc23)CC1 [Example 69],91%
16,O=C(NC[C@@H]1CCCC[C@H]1CN1CCN(c2nsc3cc(F)ccc23)CC1)c1ccc2c(c1)OCO2 [Example 82],94%
17,O=C(/C=C/c1ccc2c(c1)OCO2)NC[C@@H]1CCCC[C@H]1CN1CCN(c2nsc3cc(F)ccc23)CC1 [Example 84],95%
18,O=C1C2C3CCC(C3)C2C(=O)N1C[C@@H]1CCCC[C@H]1CN1CCN(c2nsc3cc(F)ccc23)CC1 (stereo partly drawn) [Example 85],91%
19,O=C(NC[C@H]1CCC[C@@H]1CN1CCN(c2nsc3ccccc23)CC1)c1cccc(Oc2ccccc2)c1 [Example 87],93%

row,SMILES,inhibition at 0.1 µM
1,O=S(=O)(NC[C@H]1CCC[C@@H]1CN1CCN(c2nsc3ccccc23)CC1)c1cccc(-c2ccccc2)c1 [Example 100],91%
2,COc1ccc(OC)c(S(=O)(=O)NC[C@H]2CCC[C@@H]2CN2CCN(c3nsc4ccccc34)CC2)c1 [Example 101],94%
3,O=C(NC[C@H]1CCC[C@@H]1CN1CCN(c2nsc3ccccc23)CC1)c1ccc2c(c1)OCO2 [Example 102],95%
4,O=C(/C=C/c1ccc2c(c1)OCO2)NC[C@H]1CCC[C@@H]1CN1CCN(c2nsc3ccccc23)CC1 [Example 104],92%
5,Cc1cccc(/C=C/C(=O)NC[C@H]2C[C@@H]2CN2CCN(c3nsc4ccccc34)CC2)c1 [Example 137],95%
6,COc1ccccc1/C=C/C(=O)NC[C@H]1C[C@@H]1CN1CCN(c2nsc3ccccc23)CC1 [Example 139],91%
7,C=C1[C@H](CNC(=O)/C=C/c2ccccc2C)[C@H]1CN1CCC(c2noc3cc(F)ccc23)CC1 [Example 185],92%
8,C=C1[C@H](CNS(=O)(=O)c2cccc(-c3ccccc3)c2)[C@H]1CN1CCC(c2noc3cc(F)ccc23)CC1 [Example 190],92%
9,C=C1[C@H](CNC(=O)c2ccc3c(c2)OCO3)[C@H]1CN1CCC(c2noc3cc(F)ccc23)CC1 [Example 192],90%
10,O=C(/C=C/c1cccc(Cl)c1)NC[C@@H]1CCCC[C@H]1CN1CCC(c2noc3cc(F)ccc23)CC1 [Example 200],92%
11,O=C(NC[C@@H]1CCCC[C@H]1CN1CCC(c2noc3cc(F)ccc23)CC1)c1ccc2c(c1)OCO2 [Example 221],93%
12,O=C(/C=C/c1ccc2c(c1)OCO2)NC[C@@H]1CCCC[C@H]1CN1CCC(c2noc3cc(F)ccc23)CC1 [Example 222],93%
13,O=C1C2C3CCC(C3)C2C(=O)N1C[C@@H]1CCCC[C@H]1CN1CCC(c2noc3ccccc23)CC1 (stereo partly drawn) [Example 223],94%
14,O=C1C2C3CCC(C3)C2C(=O)N1C[C@@H]1CCCC[C@H]1CN1CCC(c2noc3ccc(F)cc23)CC1 (stereo partly drawn) [Example 225],94%
15,O=C(/C=C/c1ccccc1[N+](=O)[O-])NC[C@@H]1CCCC[C@H]1CN1CCC(c2n[nH]c3cc(F)ccc23)CC1 [Example 239],95%
16,O=S(=O)(NC[C@@H]1CCCC[C@H]1CN1CCC(c2n[nH]c3cc(F)ccc23)CC1)c1cccc(-c2ccccc2)c1 [Example 240],85%
17,COc1ccc(OC)c(S(=O)(=O)NC[C@@H]2CCCC[C@H]2CN2CCC(c3n[nH]c4cc(F)ccc34)CC2)c1 [Example 241],95%
18,O=C(NC[C@@H]1CCCC[C@H]1CN1CCC(c2n[nH]c3cc(F)ccc23)CC1)c1ccc2c(c1)OCO2 [Example 242],95%
19,O=C(Cc1ccc(Cl)cc1)NC[C@@H]1CCCC[C@H]1CN1CCC(c2n[nH]c3cc(F)ccc23)CC1 [Example 243],94%
